{"source": "ChEMBL document CHEMBL1201862", "about": "“PubChem BioAssay data set” (2004)", "key": {"[1]": {"target": "T1, RNA-binding protein pos-1 (Caenorhabditis elegans, UniProt G5EF15)", "T1 sequence (G5EF15 whole entry)": "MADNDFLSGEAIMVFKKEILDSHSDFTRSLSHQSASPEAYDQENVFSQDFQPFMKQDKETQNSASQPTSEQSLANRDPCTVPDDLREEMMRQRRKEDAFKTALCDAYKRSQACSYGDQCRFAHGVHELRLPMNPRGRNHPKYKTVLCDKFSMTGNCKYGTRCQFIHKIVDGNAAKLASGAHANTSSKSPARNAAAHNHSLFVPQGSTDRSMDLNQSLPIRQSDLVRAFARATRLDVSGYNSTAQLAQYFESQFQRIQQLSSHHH", "experiment": "disruptors of C. elegans POS-1 RNA interaction – biochemical, fluorescence polarization, dose response (AID 1964);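 note: purified POS-1 fused to maltose binding protein made in E. coli; potency of compounds blocking POS-1 binding to fluorescent RNA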"}, "[2]": {"target": "T2, 1-phosphatidylinositol 4,5-bisphosphate phosphodiesterase beta-3 (Homo sapiens, UniProt Q01970)", "T2 sequence (Q01970 whole entry)": "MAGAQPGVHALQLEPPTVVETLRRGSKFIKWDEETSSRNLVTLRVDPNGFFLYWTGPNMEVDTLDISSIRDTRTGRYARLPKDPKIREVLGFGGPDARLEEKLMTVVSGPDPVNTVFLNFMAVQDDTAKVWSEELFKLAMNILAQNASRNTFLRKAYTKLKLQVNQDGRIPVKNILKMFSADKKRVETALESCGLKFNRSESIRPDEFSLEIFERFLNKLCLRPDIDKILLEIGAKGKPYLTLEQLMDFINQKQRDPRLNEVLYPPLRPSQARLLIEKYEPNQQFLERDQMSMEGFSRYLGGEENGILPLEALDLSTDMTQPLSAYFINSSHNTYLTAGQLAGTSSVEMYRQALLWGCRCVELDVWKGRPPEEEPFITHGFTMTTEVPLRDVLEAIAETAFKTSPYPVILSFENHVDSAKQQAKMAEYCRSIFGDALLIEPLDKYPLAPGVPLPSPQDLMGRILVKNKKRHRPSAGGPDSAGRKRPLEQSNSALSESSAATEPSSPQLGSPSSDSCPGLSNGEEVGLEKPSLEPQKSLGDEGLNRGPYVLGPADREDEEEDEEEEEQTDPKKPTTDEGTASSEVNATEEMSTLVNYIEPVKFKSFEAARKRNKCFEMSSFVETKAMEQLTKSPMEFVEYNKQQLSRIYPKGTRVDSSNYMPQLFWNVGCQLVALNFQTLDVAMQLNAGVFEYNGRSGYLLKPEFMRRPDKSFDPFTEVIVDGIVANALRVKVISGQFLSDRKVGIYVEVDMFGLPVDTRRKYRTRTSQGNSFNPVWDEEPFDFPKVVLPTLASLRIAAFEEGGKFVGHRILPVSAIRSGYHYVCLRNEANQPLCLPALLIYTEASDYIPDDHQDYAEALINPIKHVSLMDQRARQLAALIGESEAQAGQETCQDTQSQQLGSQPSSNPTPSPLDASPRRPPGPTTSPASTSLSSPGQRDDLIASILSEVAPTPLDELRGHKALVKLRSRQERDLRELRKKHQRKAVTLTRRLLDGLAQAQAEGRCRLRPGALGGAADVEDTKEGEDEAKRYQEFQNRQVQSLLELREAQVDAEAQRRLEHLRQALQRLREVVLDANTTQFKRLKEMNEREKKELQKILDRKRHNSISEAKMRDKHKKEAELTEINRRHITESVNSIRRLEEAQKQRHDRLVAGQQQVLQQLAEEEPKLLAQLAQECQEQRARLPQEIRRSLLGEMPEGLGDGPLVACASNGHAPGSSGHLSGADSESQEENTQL", "experiment": "Fluorescence-based biochemical high throughput dose response assay to identify inhibitors of phospholipase C isozymes (PLC-B3)."}, "Albumin": {"target": "Albumin (Bos taurus, UniProt P02769)", "sequence (P02769 whole entry)": "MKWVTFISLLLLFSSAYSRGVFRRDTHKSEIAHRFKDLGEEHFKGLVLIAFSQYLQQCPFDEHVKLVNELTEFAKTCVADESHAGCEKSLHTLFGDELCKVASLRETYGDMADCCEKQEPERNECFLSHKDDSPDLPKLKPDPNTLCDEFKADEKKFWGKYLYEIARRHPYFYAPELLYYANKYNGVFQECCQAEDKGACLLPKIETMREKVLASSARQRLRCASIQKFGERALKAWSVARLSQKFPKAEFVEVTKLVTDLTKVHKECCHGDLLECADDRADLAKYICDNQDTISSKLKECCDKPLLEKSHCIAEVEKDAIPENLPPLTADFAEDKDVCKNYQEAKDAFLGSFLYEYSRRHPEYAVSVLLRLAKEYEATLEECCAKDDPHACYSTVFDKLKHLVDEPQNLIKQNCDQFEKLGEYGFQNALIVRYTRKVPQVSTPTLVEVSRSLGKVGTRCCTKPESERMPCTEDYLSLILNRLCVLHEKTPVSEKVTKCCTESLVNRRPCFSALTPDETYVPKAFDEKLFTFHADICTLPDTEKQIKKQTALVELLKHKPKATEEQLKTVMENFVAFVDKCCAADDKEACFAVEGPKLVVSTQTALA", "experiment": "Counterscreen for inhibitors of T-cell receptor (TCR)-CD3 interaction: Fluorescence-based biochemical high throughput dose response assay to identify inhibitors of T-cell receptor (TCR)-CD3 interaction using a TAMRA-labeled BSA probe.", "assay_type": "functional"}, "[3]": {"target": "Bifunctional protein GlmU (Mycobacterium tuberculosis, UniProt P9WMN3)", "sequence (P9WMN3 whole entry)": "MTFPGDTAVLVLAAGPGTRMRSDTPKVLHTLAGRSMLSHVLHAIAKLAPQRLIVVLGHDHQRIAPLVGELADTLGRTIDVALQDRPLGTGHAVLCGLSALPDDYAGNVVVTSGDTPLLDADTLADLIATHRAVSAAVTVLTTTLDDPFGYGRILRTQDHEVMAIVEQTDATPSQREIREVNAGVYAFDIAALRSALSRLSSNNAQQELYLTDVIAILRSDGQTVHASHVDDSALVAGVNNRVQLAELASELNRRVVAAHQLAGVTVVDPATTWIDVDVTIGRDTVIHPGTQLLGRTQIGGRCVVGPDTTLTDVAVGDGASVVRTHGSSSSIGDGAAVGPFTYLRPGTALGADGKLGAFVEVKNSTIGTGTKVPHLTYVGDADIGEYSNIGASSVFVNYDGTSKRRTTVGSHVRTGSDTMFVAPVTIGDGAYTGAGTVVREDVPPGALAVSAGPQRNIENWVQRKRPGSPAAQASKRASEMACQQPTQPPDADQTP", "experiment": "Inhibitors of Mycobacterial Glucosamine-1-phosphate acetyl transferase (GlmU). Secondary screen.", "set-up": "species or system Mycobacterium tuberculosis H37Rv"}, "[4]": {"target": "T3, 1-phosphatidylinositol 4,5-bisphosphate phosphodiesterase gamma-1 (Homo sapiens, UniProt P19174)", "T3 sequence (P19174 whole entry)": "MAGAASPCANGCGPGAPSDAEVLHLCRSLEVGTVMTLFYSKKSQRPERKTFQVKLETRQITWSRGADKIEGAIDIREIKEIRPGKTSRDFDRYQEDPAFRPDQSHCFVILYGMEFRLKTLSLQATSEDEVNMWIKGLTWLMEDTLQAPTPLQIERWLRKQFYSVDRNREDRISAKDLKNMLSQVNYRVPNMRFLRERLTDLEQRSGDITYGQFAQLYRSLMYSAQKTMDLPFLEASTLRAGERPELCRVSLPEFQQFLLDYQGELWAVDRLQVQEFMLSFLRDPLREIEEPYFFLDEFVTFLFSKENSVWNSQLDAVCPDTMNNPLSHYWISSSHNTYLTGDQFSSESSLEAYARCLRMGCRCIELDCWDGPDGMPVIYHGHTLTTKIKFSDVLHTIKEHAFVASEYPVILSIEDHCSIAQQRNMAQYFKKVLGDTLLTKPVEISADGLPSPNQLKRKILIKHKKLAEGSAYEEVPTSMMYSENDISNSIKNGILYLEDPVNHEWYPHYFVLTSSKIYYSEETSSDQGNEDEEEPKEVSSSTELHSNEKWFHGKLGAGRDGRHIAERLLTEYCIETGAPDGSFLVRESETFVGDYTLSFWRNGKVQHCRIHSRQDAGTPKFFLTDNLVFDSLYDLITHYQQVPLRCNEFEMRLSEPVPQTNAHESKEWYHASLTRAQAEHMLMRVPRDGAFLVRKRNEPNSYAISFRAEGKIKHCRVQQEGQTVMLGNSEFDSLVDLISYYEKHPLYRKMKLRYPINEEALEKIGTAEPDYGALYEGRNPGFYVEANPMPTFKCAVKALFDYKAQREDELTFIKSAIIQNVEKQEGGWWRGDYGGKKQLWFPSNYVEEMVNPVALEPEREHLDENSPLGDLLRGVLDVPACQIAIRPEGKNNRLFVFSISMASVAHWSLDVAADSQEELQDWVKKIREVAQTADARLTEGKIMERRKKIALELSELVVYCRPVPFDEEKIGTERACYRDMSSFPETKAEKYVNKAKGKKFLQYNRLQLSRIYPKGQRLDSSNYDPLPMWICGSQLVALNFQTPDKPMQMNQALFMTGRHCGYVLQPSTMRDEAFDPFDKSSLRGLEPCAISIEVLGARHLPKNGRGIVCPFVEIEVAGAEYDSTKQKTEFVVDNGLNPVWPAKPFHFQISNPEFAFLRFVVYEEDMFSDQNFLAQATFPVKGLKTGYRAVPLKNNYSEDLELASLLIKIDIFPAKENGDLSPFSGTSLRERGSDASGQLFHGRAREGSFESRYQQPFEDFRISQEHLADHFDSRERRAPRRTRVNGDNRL", "experiment": "Counterscreen for inhibitors of phospholipase C isozymes (PLC-B3): Fluorescence-based biochemical high throughput dose response assay to identify inhibitors of phospholipase C isozymes (PLC-gamma1)."}}, "note": "Calls of active or inactive are those of the source."}
{"smiles": "Oc1ccc(/C=N/NC(=S)Nc2cccnc2)c(O)c1O", "values": [{"measurement": "EC50", "setting": "[1]", "value": "71.4 µM (active)"}, {"measurement": "IC50", "setting": "[2]", "value": "> 122 µM (inactive)"}, {"measurement": "IC50", "setting": "Albumin", "value": "> 94.1 µM (inactive)"}, {"measurement": "IC50", "setting": "[3]", "value": "83 µM (active)"}, {"measurement": "IC50", "setting": "[4]", "value": "> 122 µM (inactive)"}]}
